US20230104936A1, “TRPML MODULATORS” (Casma Therapeutics, Inc., priority 2019, published 2023)

System: TFEB
Test: TFEB nuclear translocation assay, HeLa wt cells
Assay type: cell-based
Conditions: Homo sapiens, HeLa, 2 h, 2 hrs compound treatment, Table 1 does not say HeLa wt or TRPML1 KO
Method in brief: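 TFEB translocation into the nucleus of HeLa wt cells is scored by high-content immunofluorescence after 2 hrs of compound treatment at 37° C, reported as AC50.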

`CN(C)S(=O)(=O)c1ccc(S(=O)(=O)Cc2ccccc2N2CCC(c3c(F)cccc3F)CC2)cc1` [Compound A-229, 4-((2-(4-(2,6-difluorophenyl)piperidin-1-yl)benzyl)sulfonyl)-N,N-dimethylbenzenesulfonamide] showed an AC50 of no more than 2 µM.

With `CN(C)CC1(c2ccc(F)cc2)CCN(c2ccccc2NS(=O)(=O)c2ccc(S(=O)(=O)N(C)C)cc2)CC1` [Compound A-231, N4-(2-{4-[(dimethylamino)methyl]-4-(4-fluorophenyl)piperidin-1-yl}phenyl)-N1,N1-dimethylbenzene-1,4-disulfonamide] the AC50 was no more than 2 µM.

With `CN(C)S(=O)(=O)c1ccc(S(=O)(=O)Nc2ccccc2N2CCP(=O)(c3ccc(F)cc3)CC2)cc1` [Compound A-232, N4-{2-[4-(4-fluorophenyl)-4-oxo-1,4λ^5-azaphosphinan-1-yl]phenyl}-N1,N1-dimethylbenzene-1,4-disulfonamide] the AC50 was no less than 10 µM.

With `CN(C)S(=O)(=O)c1ccc(NC(c2ccccc2N2CCC(c3ccc(Cl)cc3F)CC2)C(F)(F)F)cc1` (centres unmarked) [Compound A-241, 4-((1-(2-(4-(4-chloro-2-fluorophenyl)piperidin-1-yl)phenyl)-2,2,2-trifluoroethyl)amino)-N,N-dimethylbenzenesulfonamide] the AC50 was no less than 10 µM.

For `CN1CC2(CCN(c3ccccc3N(C)S(=O)(=O)c3ccc(S(=O)(=O)N(C)C)cc3)CC2)c2ccc(F)cc21` [Compound A-243, N1-(2-{6-fluoro-1-methyl-1,2-dihydrospiro[indole-3,4′-piperidin]-1′-yl}phenyl)-N1,N4,N4-trimethylbenzene-1,4-disulfonamide], the AC50 was no more than 2 µM.

Compound `CN1CCC2(CCN(c3ccccc3NS(=O)(=O)c3ccc(S(=O)(=O)N(C)C)cc3)CC2)C1=O` [Compound A-244, N1,N1-dimethyl-N4-(2-{2-methyl-1-oxo-2,8-diazaspiro[4.5]decan-8-yl}phenyl)benzene-1,4-disulfonamide] has an AC50 of no less than 10 µM.

`Cc1ccc(S(=O)(=O)Nc2ccccc2N2CCC3(CC2)CN(C)c2cc(F)ccc23)cc1` [Compound A-245, N-(2-{6-fluoro-1-methyl-1,2-dihydrospiro[indole-3,4′-piperidin]-1′-yl}phenyl)-4-methylbenzene-1-sulfonamide] showed an AC50 of no more than 2 µM.

Work on `CN1CC2(CCN(c3ccccc3NS(=O)(=O)c3ccc(S(=O)(=O)C(F)F)cc3)CC2)c2ccc(F)cc21` [Compound A-246, 4-difluoromethanesulfonyl-N-(2-{6-fluoro-1-methyl-1,2-dihydrospiro[indole-3,4′-piperidin]-1′-yl}phenyl)benzene-1-sulfonamide] yielded an AC50 of no more than 2 µM.

Work on `CN1CC2(CCN(c3c(NS(=O)(=O)c4ccc(S(=O)(=O)N(C)C)cc4)ccc4c3cnn4C)CC2)c2ccc(F)cc21` [Compound A-247, N4-(4-{6-fluoro-1-methyl-1,2-dihydrospiro[indole-3,4′-piperidin]-1′-yl}-1-methyl-1H-indazol-5-yl)-N1,N1-dimethylbenzene-1,4-disulfonamide] yielded an AC50 of no more than 2 µM.

With `CN1CC2(CCN(c3ccccc3NS(=O)(=O)c3ccc(S(C)(=O)=O)cc3)CC2)c2ccc(F)cc21` [Compound A-251, N-(2-{6-fluoro-1-methyl-1,2-dihydrospiro[indole-3,4′-piperidin]-1′-yl}phenyl)-4-methanesulfonylbenzene-1-sulfonamide] the AC50 was no more than 2 µM.

Compound `COc1ccc(S(=O)(=O)Nc2ccccc2N2CCC3(CC2)CN(C)c2cc(F)ccc23)cc1` [Compound A-252, N-(2-{6-fluoro-1-methyl-1,2-dihydrospiro[indole-3,4′-piperidin]-1′-yl}phenyl)-4-methoxybenzene-1-sulfonamide] has an AC50 of no more than 2 µM.

For `CN(C)S(=O)(=O)c1ccc(S(=O)(=O)Nc2ccccc2N2CCC3(CC2)COc2cc(F)ccc23)cc1` [Compound A-253, N4-(2-{6-fluoro-2H-spiro[1-benzofuran-3,4′-piperidin]-1′-yl}phenyl)-N1,N1-dimethylbenzene-1,4-disulfonamide], the AC50 was no more than 2 µM.

Compound `CC(c1ccccc1N1CCC(c2c(F)cccc2F)CC1)S(=O)(=O)c1ccc(S(=O)(=O)N(C)C)cc1` (centres unmarked) [Compound A-254, 4-((1-(2-(4-(2,6-difluorophenyl)piperidin-1-yl)phenyl)ethyl)sulfonyl)-N,N-dimethylbenzenesulfonamide] has an AC50 of no more than 2 µM.

In the case of `CN1CC2(CCN(c3ccccc3NS(=O)(=O)c3ccc(S(=N)(=O)N(C)C)cc3)CC2)c2ccc(F)cc21` (centres unmarked) [Compound A-257, 4-[(2-{6-fluoro-1-methyl-1,2-dihydrospiro[indole-3,4′-piperidin]-1′-yl}phenyl)sulfamoyl]-N,N-dimethylbenzene-1-sulfonoimidamide], the AC50 is reported as no more than 2 µM.

`CN(C)S(=O)(=O)c1ccc(S(=O)(=O)Nc2ccccc2N2CCC3(CC2)OCc2cc(F)ccc23)cc1` [Compound A-258, N4-(2-{5-fluoro-3H-spiro[2-benzofuran-1,4′-piperidin]-1′-yl}phenyl)-N1,N1-dimethylbenzene-1,4-disulfonamide] was tested, and the AC50 was no more than 2 µM.

`CN(C)S(=O)(=O)c1ccc(S(=O)(=O)Nc2ccccc2N2CCC(c3ccccc3C(=O)O)CC2)cc1` [Compound A-259, 2-(1-{2-[4-(dimethylsulfamoyl)benzenesulfonamido]phenyl}piperidin-4-yl)benzoic acid] showed an AC50 of no less than 10 µM.

`CN(C)S(=O)(=O)c1ccc(S(=O)(=O)Nc2ccccc2N2CCC(c3cccc(C(=O)O)c3)CC2)cc1` [Compound A-266, 3-(1-{2-[4-(dimethylsulfamoyl)benzenesulfonamido]phenyl}piperidin-4-yl)benzoic acid] showed an AC50 of no less than 10 µM.

For `CN(C)S(=O)(=O)c1ccc(S(=O)(=O)Nc2ccccc2N2CCC(c3ccc(C(=O)O)cc3)CC2)cc1` [Compound A-267, 4-(1-{2-[4-(dimethylsulfamoyl)benzenesulfonamido]phenyl}piperidin-4-yl)benzoic acid], the AC50 was no less than 10 µM.

Compound `CN1CC2(CCN(c3ccccc3NS(=O)(=O)c3ccc(S(=O)(=O)N(C)C)cc3)CC2)c2ncc(Cl)cc21` [Compound A-268, N4-(2-{6′-chloro-1′-methyl-1′,2′-dihydrospiro[piperidine-4,3′-pyrrolo[3,2-b]pyridin]-1-yl}phenyl)-N1,N1-dimethylbenzene-1,4-disulfonamide] has an AC50 of no more than 2 µM.

For `CN1CC2(CCN(c3ccccc3NS(=O)(=O)c3ccc(S(=O)(=O)N(C)C)cc3)CC2)C2NCCCC21` (centres unmarked) [Compound A-269, N1,N1-dimethyl-N4-(2-{1′-methyl-octahydrospiro[piperidine-4,3′-pyrrolo[3,2-b]pyridin]-1-yl}phenyl)benzene-1,4-disulfonamide], the AC50 was no less than 10 µM.

With `CN1CC2(CCN(c3ccccc3NS(=O)(=O)c3ccc(S(=O)(=O)N(C)C)cc3)CC2)c2ncccc21` [Compound A-271, N1,N1-dimethyl-N4-(2-{1′-methyl-1′,2′-dihydrospiro[piperidine-4,3′-pyrrolo(3,2-b]pyridin]-1-yl}phenyl)benzene-1,4-disulfonamide] the AC50 was no more than 2 µM.

For `CN(C)S(=O)(=O)c1ccc(S(=O)(=O)Nc2ccccc2N2CCC(c3cccc(-c4nn[nH]n4)c3)CC2)cc1` [Compound A-272, N1,N1-dimethyl-N4-(2-{4-[3-(2H-1,2,3,4-tetrazol-5-yl)phenyl]piperidin-1-yl}phenyl)benzene-1,4-disulfonamide], the AC50 was no less than 10 µM.

`CN(C)S(=O)(=O)c1ccc(S(=O)(=O)Nc2ccccc2N2CCC(c3ccc(-c4nnn[nH]4)cc3)CC2)cc1` [Compound A-273, N1,N1-dimethyl-N4-(2-{4-[4-(1H-1,2,3,4-tetrazol-5-yl)phenyl]piperidin-1-yl}phenyl)benzene-1,4-disulfonamide] was tested, and the AC50 was no less than 10 µM.

Compound `O=S(=O)(Nc1cccc(Cl)c1N1CCOCC1)c1ccc(S(=O)(=O)C(F)F)cc1` [Compound A-274, N-[3-chloro-2-(morpholin-4-yl)phenyl]-4-difluoromethanesulfonylbenzene-1-sulfonamide] has an AC50 of no less than 10 µM.

For `CS(=O)(=O)c1ccc(S(=O)(=O)Nc2cccc(Cl)c2N2CCOCC2)cc1` [Compound A-275, N-[3-chloro-2-(morpholin-4-yl)phenyl]-4-methanesulfonylbenzene-1-sulfonamide], the AC50 was no less than 10 µM.

`CC(C)(C)S(=O)(=O)c1ccc(S(=O)(=O)Nc2cc(Cl)ccc2N2CCOCC2)cc1` [Compound A-276, N-[5-chloro-2-(morpholin-4-yl)phenyl]-4-(2-methylpropane-2-sulfonyl)benzene-1-sulfonamide] showed an AC50 of no less than 10 µM.

Compound `O=S(=O)(Nc1cc(Cl)ccc1N1CCOCC1)c1ccc(S(=O)(=O)C(F)F)cc1` [Compound A-277, N-[5-chloro-2-(morpholin-4-yl)phenyl]-4-difluoromethanesulfonylbenzene-1-sulfonamide] has an AC50 of no less than 10 µM.

In the case of `CC(C)(C)S(=O)(=O)c1ccc(S(=O)(=O)Nc2cccc(Cl)c2N2CCOCC2)cc1` [Compound A-278, N-[3-chloro-2-(morpholin-4-yl)phenyl]-4-(2-methylpropane-2-sulfonyl)benzene-1-sulfonamide], the AC50 is reported as no less than 10 µM.

`CN(C)S(=O)(=O)c1ccc(S(=O)(=O)Nc2ccccc2N2CCC(c3ccccc3-c3nnn[nH]3)CC2)cc1` [Compound A-280, N1,N1-dimethyl-N4-(2-{4-[2-(1H-1,2,3,4-tetrazol-5-yl)phenyl]piperidin-1-yl}phenyl)benzene-1,4-disulfonamide] gave an AC50 of no less than 10 µM.

Work on `CN(C)C1CCCC12CCN(c1ccccc1NS(=O)(=O)c1ccc(S(=O)(=O)N(C)C)cc1)CC2` (centres unmarked) [Compound A-281, N4-{2-[1-(dimethylamino)-8-azaspiro[4.5]decan-8-yl]phenyl}-N1,N1-dimethylbenzene-1,4-disulfonamide] yielded an AC50 of no less than 10 µM.

For `CN1C(=O)C2(CCN(c3ccccc3NS(=O)(=O)c3ccc(S(=O)(=O)N(C)C)cc3)CC2)c2cccnc21` [Compound A-282, N1,N1-dimethyl-N4-(2-{1′-methyl-2′-oxo-1′,2′-dihydrospiro[piperidine-4,3′-pyrrolo[2,3-b]pyridin]-1-yl}phenyl)benzene-1,4-disulfonamide], the AC50 was 2.01 to 8 µM.

`CN(C)S(=O)(=O)c1ccc(S(=O)(=O)Nc2ccccc2N2CCN(c3ccc(Cl)cc3F)CC2=O)cc1` [Compound A-283, N4-{2-[4-(4-chloro-2-fluorophenyl)-2-oxopiperazin-1-yl]phenyl}-N1,N1-dimethylbenzene-1,4-disulfonamide] gave an AC50 of no less than 10 µM.
